# Experimental data taken from ChEMBL document CHEMBL1201862, “PubChem BioAssay data set” (2004).
#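 All cell lines were grown in 96-well plates and treated with compound for 48 hours. GI50 is the concentration that inhibits growth by half.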 Calls of active or inactive are those of the source. Rule as the data show it: active = GI50 up to about 1.1 µM and inactive = higher.
# Columns and labels:
# Assay in all cases: NCI anticancer screen, dose series, 48 h
# [1] = system: Hs-578T
# [2] = system: HCT-116
# [3] = system: RPMI-8226
# [4] = system: ACHN
# [5] = system: BT-549
# [6] = system: SN12C
# [7] = system: NCI-H226
# [8] = system: NCI-H522
# [9] = system: M14
# [10] = system: TK-10
# [11] = system: SK-MEL-28
# [12] = system: A549
# [13] = system: NCI/ADR-RES
# [14] = system: HT-29
# [15] = system: T47D
# [16] = system: COLO 205
# [17] = system: SK-OV-3
# [18] = system: SF-295
# [19] = system: SNB-75
SMILES,GI50 [1],GI50 [2],GI50 [3],GI50 [4],GI50 [5],GI50 [6],GI50 [7],GI50 [8],GI50 [9],GI50 [10],GI50 [11],GI50 [12],GI50 [13],GI50 [14],GI50 [15],GI50 [16],GI50 [17],GI50 [18],GI50 [19]
COc1cc(/C=C2\C(=O)N(c3ccccc3Cl)C(c3ccccc3)S2(=O)=O)cc(OC)c1OC (stereo not drawn),46.5 µM (inactive),22.9 µM (inactive),17.2 µM (inactive),> 100 µM (inactive),36 µM (inactive),20.8 µM (inactive),42 µM (inactive),20.9 µM (inactive),31.9 µM (inactive),62.7 µM (inactive),39 µM (inactive),36.8 µM (inactive),29.6 µM (inactive),16.3 µM (inactive),32.8 µM (inactive),36.4 µM (inactive),30.7 µM (inactive),34 µM (inactive),
COc1cc(/C=C2\Cc3cc(OC)c(OC)cc3C2=O)cc(OC)c1,22 µM (inactive),21 µM (inactive),> 33.6 µM (inactive),> 58.2 µM (inactive),15.3 µM (inactive),> 74.1 µM (inactive),> 100 µM (inactive),3.74 µM (inactive),> 100 µM (inactive),48 µM (inactive),> 100 µM (inactive),> 96.6 µM (inactive),0.904 µM (active),> 100 µM (inactive),> 100 µM (inactive),> 46.7 µM (inactive),17 µM (inactive),4.2 µM (inactive),9.53 µM (inactive)
COc1ccc(/C=N/n2c(Cc3ccc(Cl)cc3)n[nH]c2=O)c(OC)c1,14.3 µM (inactive),> 100 µM (inactive),> 100 µM (inactive),44.7 µM (inactive),35.2 µM (inactive),> 10 µM (inactive),29.9 µM (inactive),16 µM (inactive),94.8 µM (inactive),18.2 µM (inactive),80 µM (inactive),27.4 µM (inactive),12.3 µM (inactive),24.9 µM (inactive),69 µM (inactive),> 100 µM (inactive),26.1 µM (inactive),19 µM (inactive),15.9 µM (inactive)
Clc1ccc(/N=C2\c3ccccc3CN2c2ccc(Cl)cc2)cc1,> 100 µM (inactive),41.4 µM (inactive),7.69 µM (inactive),0.668 µM (active),> 100 µM (inactive),> 100 µM (inactive),> 100 µM (inactive),63.2 µM (inactive),31.7 µM (inactive),87.5 µM (inactive),64 µM (inactive),29.9 µM (inactive),> 100 µM (inactive),19 µM (inactive),0.219 µM (active),1.58 µM (inactive),> 100 µM (inactive),10.4 µM (inactive),63.8 µM (inactive)
Fc1cc(F)c(F)c(S)c1F,37.5 µM (inactive),> 100 µM (inactive),31.3 µM (inactive),> 100 µM (inactive),26 µM (inactive),20.4 µM (inactive),> 100 µM (inactive),15.5 µM (inactive),> 100 µM (inactive),> 100 µM (inactive),> 100 µM (inactive),36.6 µM (inactive),19.4 µM (inactive),92.9 µM (inactive),> 100 µM (inactive),> 100 µM (inactive),65.6 µM (inactive),> 100 µM (inactive),> 100 µM (inactive)
CC1(C(=O)O)CCCC1C(=O)O (stereo not drawn),> 100 µM (inactive),> 100 µM (inactive),4.51 µM (inactive),> 100 µM (inactive),> 100 µM (inactive),> 100 µM (inactive),> 100 µM (inactive),> 100 µM (inactive),> 100 µM (inactive),> 100 µM (inactive),> 100 µM (inactive),> 100 µM (inactive),> 100 µM (inactive),> 100 µM (inactive),> 100 µM (inactive),,,> 100 µM (inactive),
Cc1cc2c(O)c(c1)CN(Cc1ccccc1)Cc1cc(C)cc(c1O)CN(Cc1ccccc1)Cc1cc(C)cc(c1O)CN(Cc1ccccc1)C2,> 100 µM (inactive),> 100 µM (inactive),> 100 µM (inactive),> 100 µM (inactive),> 100 µM (inactive),> 100 µM (inactive),> 100 µM (inactive),> 100 µM (inactive),> 100 µM (inactive),> 100 µM (inactive),> 100 µM (inactive),> 100 µM (inactive),> 100 µM (inactive),> 100 µM (inactive),> 100 µM (inactive),> 100 µM (inactive),> 100 µM (inactive),> 100 µM (inactive),50.8 µM (inactive)
O=S(=O)(O)c1ccc(/N=N/c2ccc(/N=N/c3c(O)c(S(=O)(=O)O)cc4cc(S(=O)(=O)O)ccc34)cc2)cc1,> 100 µM (inactive),> 100 µM (inactive),> 100 µM (inactive),> 100 µM (inactive),> 100 µM (inactive),> 100 µM (inactive),> 100 µM (inactive),> 100 µM (inactive),> 100 µM (inactive),> 100 µM (inactive),> 100 µM (inactive),> 100 µM (inactive),> 100 µM (inactive),> 100 µM (inactive),> 100 µM (inactive),> 100 µM (inactive),> 100 µM (inactive),> 100 µM (inactive),
O=C(N/N=C(COc1ccc(Cl)cc1)\N=C\c1ccncc1)c1ccncc1,> 100 µM (inactive),> 100 µM (inactive),83.8 µM (inactive),> 100 µM (inactive),> 100 µM (inactive),> 100 µM (inactive),> 100 µM (inactive),84.5 µM (inactive),> 100 µM (inactive),> 100 µM (inactive),> 100 µM (inactive),> 100 µM (inactive),> 100 µM (inactive),> 100 µM (inactive),96.4 µM (inactive),> 100 µM (inactive),> 100 µM (inactive),> 100 µM (inactive),
CC(=O)Oc1cc2c(n(C)c1=O)-c1ccccc1C2,65 µM (inactive),34.7 µM (inactive),> 100 µM (inactive),32.5 µM (inactive),46.1 µM (inactive),> 100 µM (inactive),> 100 µM (inactive),15.9 µM (inactive),93.3 µM (inactive),51.8 µM (inactive),> 100 µM (inactive),63.7 µM (inactive),23.2 µM (inactive),78.2 µM (inactive),> 100 µM (inactive),39.4 µM (inactive),> 100 µM (inactive),> 100 µM (inactive),> 100 µM (inactive)
O=C(N/N=C(COc1cccc(Cl)c1)\N=C\c1cccnc1)c1ccncc1,83.4 µM (inactive),> 100 µM (inactive),> 100 µM (inactive),91.2 µM (inactive),> 100 µM (inactive),> 100 µM (inactive),93.5 µM (inactive),63.7 µM (inactive),> 100 µM (inactive),> 100 µM (inactive),> 100 µM (inactive),> 100 µM (inactive),> 100 µM (inactive),> 100 µM (inactive),32.5 µM (inactive),95.9 µM (inactive),> 100 µM (inactive),> 100 µM (inactive),18.5 µM (inactive)
